Reference: ChEMBL document CHEMBL1147228, “Dammarane-type triterpenes from the Brazilian medicinal plant Cordia multispicata” (J Nat Prod, 2003)

Test: Antiandrogenic activity assessed as inhibition of testosterone 5alpha reductase at 100 ug/mL
Design: scale not given: the % may be the effect or the level left

Row | SMILES | Activity [%]
1 | C/C(=C\C(O)C1OC1(C)C)[C@H]1CC[C@]2(C)[C@@H]1C[C@@H](O)[C@@H]1[C@]34CC[C@](O)(OC3)C(C)(C)[C@@H]4CC[C@]12C (stereo not given in full) | 15.1
2 | C=C(C)C(O)C(O)/C=C(\C)[C@H]1CC[C@]2(C)[C@@H]1C[C@@H](O)[C@@H]1[C@]34CC[C@](O)(OC3)C(C)(C)[C@@H]4CC[C@]12C (stereo not given in full) | 18
3 | C/C(=C\C(O)C1OC1(C)C)[C@H]1CC[C@]2(C)[C@@H]1C[C@@H](O)[C@@H]1[C@@]3(C)CCC(=O)C(C)(C)[C@@H]3CC[C@]12C (stereo not given in full) | 43.1

Next, values leading:

Row | Activity [%] | SMILES
4 | 19 | COC(C)(C)C(O)C(O)/C=C(\C)[C@H]1CC[C@]2(C)[C@@H]1C[C@@H](O)[C@@H]1[C@]34CC[C@](O)(OC3)C(C)(C)[C@@H]4CC[C@]12C (stereo not given in full)
5 | -2.09 | C/C(=C\C(O)C(O)C(C)(C)O)[C@H]1CC[C@]2(C)[C@@H]1C[C@@H](O)[C@@H]1[C@]34CC[C@](O)(OC3)C(C)(C)[C@@H]4CC[C@]12C (stereo not given in full)
